Results from patent publication US10947271B2, “Antibacterial agents” (THE UNIVERSITY OF QUEENSLAND, priority 2014, dated 2021).

Legend:
MRSA (Strain ATCC 43300) = assay: Murine thigh infection model (MRSA); type: in vivo, Staphylococcus aureus; conditions: neutropenic CD1 mice
Procedure: Summary: Adult (8 week old) female CD1 mice were made neutropenic by two injections of cyclophosphamide 4 days and 1 day prior to infection. An inoculum of 10^5 cfu MRSA (Strain ATCC 43300) was injected intramuscularly into both left and right thighs of all mice. […] After an additional two hours, a 50 μL sample of blood was obtained from the tail bleed to analyse for presence of antibiotic compound. […] Thighs were then removed, weighed and homogenised in a fixed volume of saline. The homogenate solution was filtered, diluted and seeded onto agar plates, which were incubated overnight at 37° C. Colony counts were used to establish the cfu in the thigh homogenates, the cfu/thigh, and the cfu/g of thigh.
Compound preparation: Cyclophosphamide monohydrate (Sigma) was dissolved in sterile saline to a concentration of 30 mg/mL. Likewise, vancomycin (Sigma) and MCC compounds were also dissolved in sterile saline to a final concentration of 60 mg/mL and 18.5 mg/mL respectively. All compounds were prepared in low binding Eppendorf tubes and kept at −20° C. until used.
In vivo experimental assay: Eight week old female outbred CD1 mice (UQBR-AIBN) were rendered neutropenic by injecting two doses of cyclophosphamide intraperitoneally 4 days (150 mg/kg) and 1 day (100 mg/kg) prior to experimental infection. The infection model using MRSA was established by intramuscular injection of 50 μL of early-log-phase bacterial MRSA suspension (around 2×10^6 cfu/mL) in saline into both thigh muscles. […] Untreated animals received equivalent volume of saline (Baxter). The mice were monitored for signs of normal behaviour (i.e. grooming, eating, drinking, sleeping, and alertness) during and following dosing. Two hours after saline/antibiotic treatment, 0.05 mL of blood was collected by tail incision. 24 hours after MRSA infection, mice were euthanized and blood collected from the heart by cardiac puncture (saline group) or by tail incision (Vancomycin and MCC compound treated groups) as outlined in FIG. 1. For each mouse, both thighs were collected aseptically by cutting the leg at the hip and knee, placed in 10 mL of cold sterile saline and the individual weight of each thigh recorded.
Preparation of injectable MRSA solution: An MRSA subculture bacterial isolate (ATCC43300) was taken from the storage at −80° C. and freshly seeded on agar plates for overnight (O/N) growth. From the O/N culture preparation, a single colony was diluted into 10-12 mL of Mueller Hinton broth (MHB) and incubated O/N at 37° C. A log-phase subculture was obtained by adding 100 μL of O/N subculture in 10 mL MHB and incubated for a further 2-3 hours. Finally, the OD600 value of the bacterial suspension was determined and the colony forming units per millilitre (cfu/mL) extrapolated. A full dilution of the bacterial cell suspension in saline was achieved by washing (3220×g for 10 min) and the OD600 in saline determined. The suspension was then diluted out accordingly in order to achieve a 2×10^6 cfu/mL solution (10^5 cfu in 50 μL/thigh).
Thus, 10 μL of the injectable MRSA suspension was diluted down to 10-1000 fold, each dilution plated out onto agar plates and incubated at 37° C. for 24 hours.
Thigh homogenates and CFU determination: Thighs were homogenized at 20,000 rpm for 15 seconds using a Polytron MR2500E using a […] probe (all Kinematica).

[1] = system: Staphylococcus aureus MRSA ATCC 43300; assay: MIC assay, S. aureus MRSA ATCC 43300; type: cell-based; conditions: 24 h incubation, visual reading
In short: (§1)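 Mid-log cultures in MHB were added at 5×10e5 CFU/mL to compounds diluted twofold from 8 to 0.003 μg/ml. Visual inspection after 24 h incubation at 37° C. gave the MIC, the lowest concentration without visible growth.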

[2] = system: Streptococcus pneumoniae MDR ATCC 700677; assay: MIC assay, S. pneumoniae MDR ATCC 700677; type: cell-based; conditions: 24 h incubation, visual reading
In short: as §1

[3] = system: Enterococcus faecium MDR Van A ATCC 51559; assay: MIC assay, E. faecium MDR Van A ATCC 51559; type: cell-based; conditions: 24 h incubation, visual reading
In short: as §1

[4] = Stability of compounds in human plasma; conditions: 50% human plasma/PBS pH 7.4, 37° C.
Procedure: Briefly test compounds (20 μM) were prepared from a 1 mM stock solution. The human plasma sample (200 μl) was diluted with 160 μl phosphate-buffer saline (PBS, pH 7.4) to a concentration of 50% v/v before use. Solutions were then vortexed and placed on a 37° C. shaker and shaken gently for 10 minutes. 40 μl of the test compounds were then added to the plasma sample and vortexed. For the reaction time t=0 hour, 50 μl of sample was immediately transferred into an eppendorf tube and quenched with 150 μl cold acetonitrile. The remaining plasma solution was incubated and shaken at 37° C. Other samples were collected at time points of 0, 1, 3, 6 and 24 hours whereby 50 μl aliquots were removed and quenched with 150 μl cold acetonitrile. All samples were placed in a 4° C. fridge for 10 minutes then centrifuged at 3000 rpm for 15 minutes. The supernatant (100 μl) was transferred to a glass vial insert for LCMS analysis. The percentage of test compounds remaining at the individual time points relative to sample at time point 0 hour were reported.
Plasma: Human Plasma (Pooled Normal Human Plasma Heparin Anticoagulant 50 mL (IPLA-2 N-04 lot IR09-1001, originally from Innovative Research and imported by BioCore).
All compounds in 100% water (40 μL in 400 μL assay volume equivalent […])
Compounds: 40 μL of the vancomycin derivative solution was added to 160 μL of PBS (pH 7.4) respectively in an Eppendorf tube. 600 μL of cold acetonitrile was added, the tube vortexed and transferred to a glass vial for LC-MS analysis.
Eucatropine: 200 μL of plasma and 190 μL of buffer were vortexed, shaken at 37° C. for 10 minutes. 10 μL of eucatropine solution was then added and the tube vortexed. A 50 μL aliquot was immediately transferred to an Eppendorf tube, 150 μL of cold acetonitrile added and the tube transferred to a 4° C. fridge for 10 minutes. The remaining plasma solution was then transferred to the incubator and shaken at 37° C. The tube was retrieved from the fridge, centrifuged at 3000 rpm for 15 min and 100 μL of supernatant transferred to a glass vial insert for LC-MS analysis. 50 μL aliquots were processed as above at 1, […], 3, 6 and 24 hours and 5 μL was injected into triple quad MS system for analysis. Vancomycin derivatives: 200 μL of plasma and 160 μL of buffer were vortexed and shaken at 37° C. for 10 minutes. 40 μL of compound was then added and the sample was processed as above.

[5] = single subcutaneous dose 10 mg/kg

| SMILES | Average Reduction log Δcfu MRSA/thigh after 26 h (MRSA (Strain ATCC 43300); [5]) | Minimum Inhibitory Concentration (MIC) Staph. aureus ATCC43300 [1] | Minimum Inhibitory Concentration (MIC) S. pneumoniae ATCC 700677 [2] | Minimum Inhibitory Concentration (MIC) E. faecium ATCC51559 [3] | % compound remaining after incubation in 50% human plasma ([4]; 0 h (reference time point)) [%] | % compound remaining after incubation in 50% human plasma ([4]; 1 h) [%] | % compound remaining after incubation in 50% human plasma ([4]; 3 h) [%] | % compound remaining after incubation in 50% human plasma ([4]; 6 h) [%] | % compound remaining after incubation in 50% human plasma ([4]; 24 h) [%] | Average Reduction log Δcfu MRSA/thigh after 26 h (MRSA (Strain ATCC 43300); single subcutaneous dose 50 mg/kg) |
| --- | --- | --- | --- | --- | --- | --- | --- | --- | --- | --- |
| CCCCCCCCC(=O)NC(CCCNC(=N)N)C(=O)NCCCNC(=O)C1NC(=O)C2NC(=O)C(NC(=O)C3NC(=O)C(CC(N)=O)NC(=O)C(NC(=O)C(CC(C)C)NC)C(O)c4ccc(c(Cl)c4)Oc4cc3cc(c4OC3OC(CO)C(O)C(O)C3OC3CC(C)(N)C(O)C(C)O3)Oc3ccc(cc3Cl)C2O)c2ccc(O)c(c2)-c2c(O)cc(O)cc21 (stereo not drawn) [MCC_007336] | xxxx (xxxx = >6) |  |  |  |  |  |  |  |  |  |
| CCCCCCCCCCCCCC(=O)N[C@@H](CCCCN)C(=O)N[C@@H](CCCCN)C(=O)NCC(=O)NCCNC(=O)[C@H]1NC(=O)[C@H]2NC(=O)[C@H](NC(=O)[C@@H]3NC(=O)[C@H](CC(N)=O)NC(=O)[C@H](NC(=O)[C@@H](CC(C)C)NC)[C@H](O)c4ccc(c(Cl)c4)Oc4cc3cc(c4O[C@@H]3O[C@H](CO)[C@@H](O)[C@H](O)[C@H]3O[C@H]3C[C@](C)(N)[C@H](O)[C@H](C)O3)Oc3ccc(cc3Cl)[C@H]2O)c2ccc(O)c(c2)-c2c(O)cc(O)cc21 [MCC_000226, nC13CO-KKG-NHC2NH-Vanc] |  | xxxxx (xxxxx = <0.01) | xxxxx (xxxxx = <0.01) | xxx (xxx = 0.1-<1) | 100 | 98 | 137 | 85 | 87 |  |
| CCCCCCCCCCCCCC(=O)N[C@@H](CCCCN)C(=O)N[C@@H](CCCCN)C(=O)N[C@@H](CCCCN)C(=O)N[C@@H](CCCCNC(=O)[C@H]1NC(=O)[C@H]2NC(=O)[C@H](NC(=O)[C@@H]3NC(=O)[C@H](CC(N)=O)NC(=O)[C@H](NC(=O)[C@@H](CC(C)C)NC)[C@H](O)c4ccc(c(Cl)c4)Oc4cc3cc(c4O[C@@H]3O[C@H](CO)[C@@H](O)[C@H](O)[C@H]3O[C@H]3C[C@](C)(N)[C@H](O)[C@H](C)O3)Oc3ccc(cc3Cl)[C@H]2O)c2ccc(O)c(c2)-c2c(O)cc(O)cc21)C(=O)O [MCC_000223, nC13CO-KKK-K(Vanc)-OH] |  | xxxxx (xxxxx = <0.01) | xxxxx (xxxxx = <0.01) | xxx (xxx = 0.1-<1) | 100 | 174 | 164 | 170 | 139 |  |
| CCCCCCCCCC(=O)N[C@@H](CCCNC(=N)N)C(=O)N[C@@H](CCCCNC(=O)[C@H]1NC(=O)[C@H]2NC(=O)[C@H](NC(=O)[C@@H]3NC(=O)[C@H](CC(N)=O)NC(=O)[C@H](NC(=O)[C@@H](CC(C)C)NC)[C@H](O)c4ccc(c(Cl)c4)Oc4cc3cc(c4O[C@@H]3O[C@H](CO)[C@@H](O)[C@H](O)[C@H]3O[C@H]3C[C@](C)(N)[C@H](O)[C@H](C)O3)Oc3ccc(cc3Cl)[C@H]2O)c2ccc(O)c(c2)-c2c(O)cc(O)cc21)C(=O)O [MCC_005530] | xxx (xxx = 4-6) |  |  |  |  |  |  |  |  |  |
| CNC(CC(C)C)C(=O)NC1C(=O)NC(CC(N)=O)C(=O)NC2C(=O)NC3C(=O)NC(C(=O)NC(C(=O)NCCCCC(NC(=O)C(CCCCN)NC(=O)C(CCCCN)NC(=O)C(CCCCNC(=O)c4ccc(Oc5ccccc5)cc4)NC(=O)c4ccc(Oc5ccccc5)cc4)C(=O)O)c4cc(O)cc(O)c4-c4cc3ccc4O)C(O)c3ccc(c(Cl)c3)Oc3cc2cc(c3OC2OC(CO)C(O)C(O)C2OC2CC(C)(N)C(O)C(C)O2)Oc2ccc(cc2Cl)C1O (stereo not drawn) [MCC_000217, (4-PhO-PhCO)-K(4-PhO-PhCO)-KK-K(Vanc)-OH] |  | xxxxx (xxxxx = <0.01) | xxxxx (xxxxx = <0.01) | xx (xx = 1-4) | 100 | 107 |  | 103 | 99 |  |
| CCCCCCCCCC(=O)N[C@@H](Cc1c[nH]c2ccccc12)C(=O)N[C@H](CC(N)=O)C(=O)N[C@@H](CC(=O)O)C(=O)N[C@@H]1C(=O)NCC(=O)N[C@@H](CCCN)C(=O)N[C@@H](CC(=O)O)C(=O)N[C@H](C)C(=O)N[C@@H](CC(=O)O)C(=O)NCC(=O)N[C@H](CO)C(=O)N[C@@H]([C@H](C)CC(=O)O)C(=O)N[C@@H](CC(=O)c2ccccc2N)C(=O)O[C@@H]1C [Daptomycin, reference compound] |  |  |  |  |  |  |  |  |  | xxx (xxx = 4-6) |
| CCCCCCCCC(=O)N[C@@H](CCCCN)C(=O)NCCCNC(=O)[C@H]1NC(=O)[C@H]2NC(=O)[C@H](NC(=O)[C@@H]3NC(=O)[C@H](CC(N)=O)NC(=O)[C@H](NC(=O)[C@@H](CC(C)C)NC)[C@H](O)c4ccc(c(Cl)c4)Oc4cc3cc(c4O[C@@H]3O[C@H](CO)[C@@H](O)[C@H](O)[C@H]3O[C@H]3C[C@](C)(N)[C@H](O)[C@H](C)O3)Oc3ccc(cc3Cl)[C@H]2O)c2ccc(O)c(c2)-c2c(O)cc(O)cc21 [MCC_005203] | xxx (xxx = 4-6) |  |  |  |  |  |  |  |  |  |
